# Assay results: patent publication US8937068B2, “Pyridopyrazine derivatives and their use” (Zentaris GmbH, priority 2005, dated 2015)
# Legend:
# p38alpha = p38alpha (Homo sapiens (Human), UniProt Q16539); test: Cell-free kinase assay (ALPHA technology), p38alpha; type: biochemical; details: 10 μM ATP
# BxPC3 = test: XTT assay, anti-proliferative effect, BxPC3; type: cell-based; details: Homo sapiens, BXPC-3; 45 h incubation
# Description: (§1) The principle of this test is based on the intracellular reduction of the tetrazolium dye XTT (sodium 3′-[1-(phenylaminocarbonyl)-3,4-tetrazolium]-bis(4-methoxy-6-nitro)benzene sulfonic acid, Sigma) to a formazan dye by mitochondrial dehydrogenases. The dye is only formed by metabolically active cells and its photometrically measurable intensity is a quantitative indicator for the presence of living cells. The reduction of dye formation by incubation of the cells with substances serves as a parameter for the anti-proliferative effect.
# (§2) The tumour cell lines (ATCC) were injected into 96-well microtitre plates in a defined cell number (5000 cells/well for BxPC3 and Hct116; 10000 cells/well for MDA MB468) and then incubated overnight in an incubator at 37° C., 5% CO2 and 95% air humidity. The test substances were prepared as stock solutions (10 mM) in DMSO. […] The cell plates were then incubated for 45 h in an incubator at 37° C., 5% CO2 and 95% air humidity.
# (§3) For the detection reaction the substrate XTT was mixed with PMS (N-Methyl dibenzopyrazine methylsulfate, Sigma) and added to the cells so that a final concentration of 325 μg XTT/ml and 2.5 μg PMS/ml was obtained. It was then incubated for 3 h at 37° C., 95% air humidity. The formazan salt formed by the cellular dehydrogenases could then be quantified by adsorption at 490 nm.
# (§4) The % inhibition value was evaluated by means of the following formula from the values for the optical densities measured in each case at 490 nm:
# (§5) Eight determinations were made for each control and two for the substance samples. The 0% control contains no cells, the 100% control (proliferation control) contains no test substance. The EC50 values were determined using GraphPadPrism.
# MDA-MB468 = test: XTT assay, anti-proliferative effect, MDA-MB468; type: cell-based; details: 45 h incubation
# Description: as §1, §2, §3, §4, §5
# p38alpha, sequence (Q16539 whole entry): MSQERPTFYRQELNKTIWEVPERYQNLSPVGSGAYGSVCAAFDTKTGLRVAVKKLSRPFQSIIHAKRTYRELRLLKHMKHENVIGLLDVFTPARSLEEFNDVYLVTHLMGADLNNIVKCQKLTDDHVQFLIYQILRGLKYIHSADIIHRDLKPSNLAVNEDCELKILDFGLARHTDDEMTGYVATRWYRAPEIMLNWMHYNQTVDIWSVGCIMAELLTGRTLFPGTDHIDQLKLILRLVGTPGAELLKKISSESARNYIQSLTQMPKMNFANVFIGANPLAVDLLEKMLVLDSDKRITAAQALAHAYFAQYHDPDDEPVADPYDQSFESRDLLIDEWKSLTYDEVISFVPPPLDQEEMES
Compound,IC50 (p38alpha),EC50 (BxPC3),"EC50 (MDA-MB468; Homo sapiens, MDA-MB-468)",melting point,EC50 (MDA-MB468)
"CCNC(=O)Nc1ccc2ncc(-c3ccc(O)c(OC)c3)nc2n1 [Compound 124, 1-Ethyl-3-[3-(4-hydroxy-3-methoxy-phenyl)-pyrido[2,3-b]pyrazin-6-yl]-urea]",> 100 µM,10 µM,10 µM,–,–
"CCNC(=O)Nc1ccc2ncc(Nc3ccc(C)cc3)nc2n1 [Compound 150, 1-Ethyl-3-(3-p-tolylamino-pyrido[2,3-b]pyrazin-6-yl)-urea]",18.1 µM,0.9 µM,4.3 µM,–,–
"CCNC(=O)Nc1ccc2ncc(-c3cnn(C)c3)nc2n1 [Compound 173, 1-Ethyl-3-[3-(1-methyl-1H-pyrazol-4-yl)-pyrido[2,3-b]pyrazin-6-yl]-urea]",> 100 µM,–,> 25 µM,–,–
"CCNC(=O)Nc1ccc2ncc(-c3ccc(O)c(OC)c3)nc2n1.Cc1ccc(S(=O)(=O)O)cc1 [Compound 183, 1-Ethyl-3-[3-(4-hydroxy-3-methoxy-phenyl)-pyrido[2,3-b]pyrazin-6-yl]-urea p-Toluolsulfonate]",> 100 µM,–,–,–,4.3 µM

# The remaining lines, values ahead:
IC50 (p38alpha),EC50 (BxPC3),"EC50 (MDA-MB468; Homo sapiens, MDA-MB-468)",melting point,EC50 (MDA-MB468),Compound
> 100 µM,12 µM,4 µM,230 °C (dec.),–,"C=CCNC(=S)Nc1ccc2ncc(-c3ccc(O)cc3)nc2n1 [Compound 30, 1-allyl-3-[3-(4-hydroxy-phenyl)-pyrido[2,3-b]pyrazin-6-yl]-thiourea]"
> 100 µM,> 50 µM,~20 µM,–,–,"O=C(NCCCCO)Nc1ccc2ncc(-c3ccccc3)nc2n1 [Compound 146, 1-(4-Hydroxy-butyl)-3-(3-phenyl-pyrido[2,3-b]pyrazin-6-yl)-urea]"
